Publication PMC8069214, “Synthesis, Biological Evaluation, and Molecular Modeling of Aza-Crown Ethers” (Molecules, 2021)

Tested on: not given
Experiment: not given
Conditions: not given

melting point [°C]	SMILES
255 to 257	O=C(NC12CC3CC(CC(C3)C1)C2)C12CC3CC(CC(C3)C1)C2 [Compound 2, N-(1-adamantyl)adamantane-1-carboxamide]
242 to 244	O=C(CC12CC3CC(CC(C3)C1)C2)NC12CC3CC(CC(C3)C1)C2 [Compound 3, N,2-di(1-adamantyl)acetamide]
174 to 176	O=C(NC1CCCCC1)C12CC3CC(CC(C3)C1)C2 [Compound 4, N-cyclohexyladamantane-1-carboxamide]
74 to 78	C1COCCN(CC23CC4CC(CC(C4)C2)C3)CCOCCN(CC23CC4CC(CC(C4)C2)C3)CCO1 [Compound 19, N,N’-bis[(1-adamantyl)methyl]-4,10-diaza-15-crown-5]

Tested on: human neutrophils
Experiment: Inhibition of fMLF-induced [Ca2+]i flux in human neutrophils
Type: cell-based
Conditions: Neutrophil, 10 min preincubation, 5 nM fMLF, N.A. = no activity at < 50 µM, read-out: FPR1/FPR2 Agonist-Induced Δ[Ca^2+]i Neutrophils IC50
Procedure: (§1) Since these compounds elevated neutrophil [Ca^2+]i, and cytosolic Ca^2+ flux is a key component of neutrophil activation, we evaluated if they could alter neutrophil activation by FPR1 or FPR2 agonists. Neutrophils and FPR-transfected HL60 cells were preincubated for 10 min with crown ether compounds, and [Ca^2+]i flux was stimulated with either an FPR1 agonist (fMLF for human neutrophils and FPR1-HL60 cells) or an FPR2 agonist (WKYMVM for FPR2-HL60 cells).
(§2) Changes in neutrophil intracellular Ca^2+ concentrations ([Ca^2+]i) were measured with a FlexStation 3 scanning fluorometer (Molecular Devices, Sunnyvale, CA, USA). Briefly, human neutrophils were suspended in HBSS^−, loaded with Fluo-4AM at a final concentration of 1.25 μg/mL, and incubated for 30 min in the dark at 37 °C. After dye loading, the cells were washed with HBSS^−, resuspended in HBSS^+, separated into aliquots, and loaded into the wells of flat-bottom, half-area well black microtiter plates (2 × 10^5 cells/well). To assess the direct effects of test compounds on Ca^2+ flux, the compounds were added to the wells (final concentration of DMSO was 1%), and changes in fluorescence were monitored (λex = 485 nm, λem = 538 nm) every 5 s for 240 s at room temperature after addition of the test compound. To evaluate inhibitory effects of the compounds on FPR1/FPR2-dependent Ca^2+ flux, the compounds were added to the wells (final concentration of DMSO was 1%) with cells (human neutrophils or FPR1/FPR2 HL60 cells). The samples were preincubated for 10 min, followed by addition of 5 nM fMLF (for human neutrophils or FPR1-HL60 cells) or 5 nM WKYMVM (for FPR2-HL60 cells). The maximum change in fluorescence, expressed in arbitrary units over baseline, was used to determine the agonist response. Responses were normalized to the response induced by 5 nM fMLF or 5 nM WKYMVM, which were assigned as 100%. Curve fitting (at least five or six points) and calculation of median effective concentration values (EC50 or IC50) were performed by nonlinear regression analysis of the dose–response curves generated using Prism 7 (GraphPad Software, Inc., San Diego, CA, USA). Efficacy was determined by comparing individual responses activated by the test compounds to that induced by a positive control (5 nM fMLF), which was assigned a value of 100%.

IC50 [µM]	SMILES
2.6 ± 0.4	O=C(CC12CC3CC(CC(C3)C1)C2)N1CCOCCOCCOCCOCC1 [Compound 8, N-[2-(1-adamantyl)acetyl]aza-15-crown-5]
4 ± 1.4	O=C(N1CCOCCN(C(=O)C23CC4CC(CC(C4)C2)C3)CCOCC1)C12CC3CC(CC(C3)C1)C2 [Compound 12, N,N’-bis[1-oxo-1-(1-adamantyl)methyl]-4,10-diaza-12-crown-4]

Tested on: human neutrophils
Experiment: Ca2+ mobilization assay, direct effect of compounds on [Ca2+]i
Type: cell-based
Conditions: Homo sapiens, Neutrophil, % of the response induced by 5 nM fMLF; read-out: Efficacy (converted)
Text: We screened 24 aza- and diaza-crown ethers with adamantyl, adamantylalkyl, aminomethylbenzoyl, and ε-aminocaproyl substituents for their Ca^2+ ionophore effects in human neutrophils. To monitor cytoplasmic Ca^2+ levels, we used the fluorescent Ca^2+ indicator Fluo-4, which is a dynamic single-wavelength fluorescent Ca^2+ indicator. Increases in fluorescence intensity (λex = 485 nm, λem = 538 nm) reflect the rise in cytoplasmic Ca^2+ concentrations ([Ca^2+]i; see Materials and Methods).
as §2

SMILES	Emax [%]
O=C(N1CCOCCN(C(=O)C23CC4CC(CC(C4)C2)C3)CCOCC1)C12CC3CC(CC(C3)C1)C2 [Compound 12, N,N’-bis[1-oxo-1-(1-adamantyl)methyl]-4,10-diaza-12-crown-4]	25 to 50

Same assay, conditions: Homo sapiens, Neutrophil; elevation of [Ca2+]i, Fluo-4; N.A. = no activity was found at concentration < 50 µM; read-out: EC50, effect on [Ca^2+]i flux in human neutrophils

EC50 [µM]	SMILES
22.4 ± 4.3	O=C(CC12CC3CC(CC(C3)C1)C2)N1CCOCCOCCOCCOCC1 [Compound 8, N-[2-(1-adamantyl)acetyl]aza-15-crown-5]
23.8 ± 7.6	O=C(N1CCOCCN(C(=O)C23CC4CC(CC(C4)C2)C3)CCOCC1)C12CC3CC(CC(C3)C1)C2 [Compound 12, N,N’-bis[1-oxo-1-(1-adamantyl)methyl]-4,10-diaza-12-crown-4]

Same assay, conditions: Neutrophil; reciprocal of EC50 in human neutrophils; inactive compounds assigned zero; read-out: 1/[EC50] (converted)

EC50 [µM]	SMILES
22.4	O=C(CC12CC3CC(CC(C3)C1)C2)N1CCOCCOCCOCCOCC1 [Compound 8, N-[2-(1-adamantyl)acetyl]aza-15-crown-5]
23.8	O=C(N1CCOCCN(C(=O)C23CC4CC(CC(C4)C2)C3)CCOCC1)C12CC3CC(CC(C3)C1)C2 [Compound 12, N,N’-bis[1-oxo-1-(1-adamantyl)methyl]-4,10-diaza-12-crown-4]

Target: T1, FPR1 (Homo sapiens, UniProt P21462)
T1 construct: expressed in transfected cells
T1 sequence (P21462 1-350): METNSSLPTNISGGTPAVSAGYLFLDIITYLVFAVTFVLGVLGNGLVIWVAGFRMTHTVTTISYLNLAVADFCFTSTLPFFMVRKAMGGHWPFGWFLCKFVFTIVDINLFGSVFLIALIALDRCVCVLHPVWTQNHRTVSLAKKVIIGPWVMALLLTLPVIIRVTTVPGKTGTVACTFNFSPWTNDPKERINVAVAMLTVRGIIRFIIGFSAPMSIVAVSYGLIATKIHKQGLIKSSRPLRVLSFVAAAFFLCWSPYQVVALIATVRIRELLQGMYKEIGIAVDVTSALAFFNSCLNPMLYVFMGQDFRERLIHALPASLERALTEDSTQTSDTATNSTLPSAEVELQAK
Experiment: Inhibition of fMLF-induced [Ca2+]i flux in FPR1-HL60 cells
Type: cell-based
Conditions: 10 min preincubation, 5 nM fMLF; N.A. = no activity at < 50 µM; read-out: FPR1/FPR2 Agonist-Induced Δ[Ca^2+]i FPR1-HL60 IC50
Procedure: as §1
Human promyelocytic leukemia HL60 cells stably transfected with FPR1 (FPR1-HL60 cells) or FPR2 (FPR2-HL60 cells) (kind gifts from Dr. Marie-Josephe Rabiet, INSERM, Grenoble, France) were cultured in RPMI 1640 medium supplemented with 10% heat-inactivated fetal calf serum, 10 mM HEPES, 100 μg/mL streptomycin, 100 U/mL penicillin, and G418 (1 mg/mL). Although stable cell lines are cultured under G418 selection pressure, G418 may affect some assays, so it was removed in the last round of culture before assays were performed.
as §2

IC50 [µM]	SMILES
37.1 ± 4.8	O=C(CC12CC3CC(CC(C3)C1)C2)N1CCOCCOCCOCCOCC1 [Compound 8, N-[2-(1-adamantyl)acetyl]aza-15-crown-5]

Tested on: human neutrophils
Experiment: fMLF-induced neutrophil chemotaxis (ChemoTx chambers)
Type: cell-based
Conditions: 1 h, 1 nM fMLF, 60 min migration
Procedure: Human neutrophils were suspended in HBSS^+ containing 2% (v/v) heat-inactivated fetal bovine serum (2 × 10^6 cells/mL), and effects of the compounds on fMLF-induced chemotaxis was analyzed in 96-well ChemoTx chemotaxis chambers (Neuroprobe, Gaithersburg, MD, USA). In brief, neutrophils were preincubated with the indicated concentrations of the test compounds or DMSO for 20 min at room temperature and added to the upper wells of the ChemoTx chemotaxis chambers. The lower wells were loaded with 30 µL of HBSS^+ containing 2% (v/v) fetal bovine serum and the indicated concentrations of test sample plus 1 nM fMLF, DMSO (negative control), or 1 nM fMLF as a positive control. Neutrophils were added to the upper wells and allowed to migrate through the 5.0-µm pore polycarbonate membrane filter for 60 min at 37 °C and 5% CO2. The number of migrated cells was determined by measuring ATP in lysates of transmigrated cells using a luminescence-based assay (CellTiter-Glo; Promega, Madison, WI, USA), and luminescence measurements were converted to absolute cell numbers by comparison of the values with standard curves obtained with known numbers of neutrophils. Curve fitting (at least eight to nine points) and calculation of median effective concentration values (IC50) were performed by nonlinear regression analysis of the dose-response curves generated using Prism 5.

IC50 [µM]	SMILES
13.2 ± 3.8	O=C(CC12CC3CC(CC(C3)C1)C2)N1CCOCCOCCOCCOCC1 [Compound 8, N-[2-(1-adamantyl)acetyl]aza-15-crown-5]
15.7 ± 4.2	O=C(N1CCOCCN(C(=O)C23CC4CC(CC(C4)C2)C3)CCOCC1)C12CC3CC(CC(C3)C1)C2 [Compound 12, N,N’-bis[1-oxo-1-(1-adamantyl)methyl]-4,10-diaza-12-crown-4]
